Where two headings read alike, the source gives them in different places.
Legend:
[1] = biological target: T1, PRS (prolyl-tRNA synthetase) (Homo sapiens, UniProt P07814); assay: In vitro PRS enzyme activity inhibition experiment ([3H]proline, liquid scintillation); assay type: biochemical
T1 construct: the portion corresponding to PRS in cDNA of EPRS was subcloned; made in house
T1 sequence (P07814 1007-1512 limits assumed): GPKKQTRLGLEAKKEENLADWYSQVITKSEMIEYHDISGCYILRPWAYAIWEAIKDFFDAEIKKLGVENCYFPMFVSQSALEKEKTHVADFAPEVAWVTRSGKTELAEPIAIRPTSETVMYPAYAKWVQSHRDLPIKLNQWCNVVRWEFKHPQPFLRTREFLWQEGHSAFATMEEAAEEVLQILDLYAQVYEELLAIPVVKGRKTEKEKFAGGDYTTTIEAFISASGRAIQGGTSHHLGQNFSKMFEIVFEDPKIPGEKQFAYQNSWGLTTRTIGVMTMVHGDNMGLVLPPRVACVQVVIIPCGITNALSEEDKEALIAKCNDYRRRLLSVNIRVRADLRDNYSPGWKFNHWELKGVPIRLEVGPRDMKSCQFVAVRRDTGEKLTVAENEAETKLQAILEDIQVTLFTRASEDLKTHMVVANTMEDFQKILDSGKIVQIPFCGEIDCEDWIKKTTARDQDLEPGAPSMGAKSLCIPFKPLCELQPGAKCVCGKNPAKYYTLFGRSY
How it was run: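 Purified human PRS domain subcloned from EPRS cDNA, reacted at 37 °C for 5–10 min in 20 mM KPO4 pH 7.4, 6 mM MgAc, 5 mM ATP, tRNA, 0.5 mM DTT and [3H]proline. Compounds tested at 1 μM. Aminoacylation read on TCA-treated filter paper by liquid scintillation, giving % inhibition or IC50.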

NCI-H460 cells = assay: Cancer cell growth inhibition experiment (MTT assay); assay type: cell-based; conditions: Homo sapiens; NCI-H460 lung cancer cell line; 48 hours treatment; MTT cell viability
Method: NCI-H460 cells, lung cancer cell lines, were cultured in 5% CO2, 37° C. incubator using a flask for 75 cm^2 tissue culture. 96-well plates were used for the evaluation. These were prepared by differently applying at concentrations in the range of 6,000 to 12,000 cells/well according to the growth rate of the cell lines. The medium containing 5% FBS were dispensed in 200 μL/well and used. The medium were cultured for 24 hours. After confirming the cell status and dispensing form of a 96-well plate under a microscope, they were used for subsequent experiments. The compounds were evaluated at concentrations of 100, 30, 10, 3, 1, 0.3, 0.03, 0.01 μM. After removing the existing medium, the compounds with various concentrations were treated in an amount of 200 μL/well. The compounds-treated plates were further cultured for 48 hours, and the cell viabilities were measured by MTT assay to calculate IC50 values.
% Inhibition and IC50 values of the respective compounds were calculated and analyzed using Sigma Plot 8.0. The case where the derived IC50 is 5 μM or less is represented by “A”, the case where the IC50 is 5 to 30 μM is represented by “B”, and the case where the IC50 is 30 μM or higher is represented by “C”.

[2] = purified PRS protein subcloned from EPRS cDNA, 37° C., 5 to 10 minutes, read-out: PRS IC50

Structure (SMILES)	IC50 [1, 2] [nM]	IC50 (NCI-H460 cells) [µM]	IC50 [1] [nM]
O=C(C[C@H]1NCCC[C@@H]1O)Cn1ccc2ccc(Br)nc21 [Example 92, 1-(6-bromo-1H-pyrrolo[2,3-b]pyridin-1-yl)-3-((2R,3S)-3-hydroxypiperidin-2-yl)propan-2-one]	> 500	≥ 30	–
O=C(C[C@H]1NCCC[C@@H]1O)Cn1cnc2cc(C(F)(F)F)ccc21 [Example 6, 1-((2R,3S)-3-hydroxypiperidin-2-yl)-3-(5-(trifluoromethyl)-1H-benzo[d]imidazol-1-yl)propan-2-one]	100 to 500	≥ 30	–
O=C(C[C@H]1NCCC[C@@H]1O)Cn1c(CO)nc2ccc(Br)cc21 [Example 58, 1-(6-bromo-2-(hydroxymethyl)-1H-benzo[d]imidazol-1-yl)-3-((2R,3S)-3-hydroxypiperidin-2-yl)propan-2-one]	< 100	5 to 30	–
O=C(C[C@H]1NCCC[C@@H]1O)Cn1cnc2cc(Br)cnc21 [Example 37, 1-(6-bromo-3H-imidazo[4,5-b]pyridin-3-yl)-3-((2R,3S)-3-hydroxypiperidin-2-yl)propan-2-one]	< 100	≤ 5	–
O=C(C[C@H]1NCCC[C@@H]1O)Cn1ccc2ncc(Br)cc21 [Example 94, 1-(6-bromo-1H-pyrrolo[3,2-b]pyridin-1-yl)-3-((2R,3S)-3-hydroxypiperidin-2-yl)propan-2-one]	> 500	≥ 30	–
Cc1c(Br)ccc2c1ncn2CC(=O)C[C@H]1NCCC[C@@H]1O [Example 15, 1-(5-bromo-4-methyl-1H-benzo[d]imidazol-1-yl)-3-((2R,3S)-3-hydroxypiperidin-2-yl)propan-2-one]	< 100	≤ 5	–
O=C(C[C@H]1NCCC[C@@H]1O)Cn1cnc2ccc(Br)nc21 [Example 35, 1-(5-bromo-3H-imidazo[4,5-b]pyridin-3-yl)-3-((2R,3S)-3-hydroxypiperidin-2-yl)propan-2-one]	< 100	5 to 30	–
O=C(C[C@H]1NCCC[C@@H]1O)Cn1c(CO)nc2ccc(C(F)(F)F)cc21 [Example 59, 1-(2-(hydroxymethyl)-6-(trifluoromethyl)-1H-benzo[d]imidazol-1-yl)-3-((2R,3S)-3-hydroxypiperidin-2-yl)propan-2-one]	< 100	5 to 30	–
O=C(C[C@H]1NCCC[C@@H]1O)Cn1cnc2c(C(F)(F)F)c(Br)ccc21 [Example 18, 1-(5-bromo-4-(trifluoromethyl)-1H-benzo[d]imidazol-1-yl)-3-((2R,3S)-3-hydroxypiperidin-2-yl)propan-2-one]	< 100	5 to 30	–
Cc1ccc2c(ncn2CC(=O)C[C@H]2NCCC[C@@H]2O)c1Br [Example 19, 1-(4-bromo-5-methyl-1H-benzo[d]imidazol-1-yl)-3-((2R,3S)-3-hydroxypiperidin-2-yl)propan-2-one]	< 100	5 to 30	–
O=C(C[C@H]1NCCC[C@@H]1O)Cn1cnc2c(F)c(Br)ccc21 [Example 20, 1-(5-bromo-4-fluoro-1H-benzo[d]imidazol-1-yl)-3-((2R,3S)-3-hydroxypiperidin-2-yl)propan-2-one]	< 100	≤ 5	–
O=C(C[C@H]1NCCC[C@@H]1O)Cn1ccc2ccnc(Cl)c21 [Example 93, 1-(7-chloro-1H-pyrrolo[2,3-c]pyridin-1-yl)-3-((2R,3S)-3-hydroxypiperidin-2-yl)propan-2-one]	100 to 500	≥ 30	–
O=C(C[C@H]1NCCC[C@@H]1O)Cn1cnc2cccc(C(F)(F)F)c21 [Example 8, 1-((2R,3S)-3-hydroxypiperidin-2-yl)-3-(7-(trifluoromethyl)-1H-benzo[d]imidazol-1-yl)propan-2-one]	< 100	5 to 30	–
O=C(C[C@H]1NCCC[C@@H]1O)Cn1cnc2c(Cl)c(Br)cnc21 [Example 42, 1-(6-bromo-7-chloro-3H-imidazo[4,5-b]pyridin-3-yl)-3-((2R,3S)-3-hydroxypiperidin-2-yl)propan-2-one]	–	≤ 5	< 100
Cc1c(Cl)ccc2ncn(CC(=O)C[C@H]3NCCC[C@@H]3O)c12 [Example 28, 1-(6-chloro-7-methyl-1H-benzo[d]imidazol-1-yl)-3-((2R,3S)-3-hydroxypiperidin-2-yl)propan-2-one]	< 100	≥ 30	–
Cc1c(F)ccc2c1ncn2CC(=O)C[C@H]1NCCC[C@@H]1O [Example 13, 1-(5-fluoro-4-methyl-1H-benzo[d]imidazol-1-yl)-3-((2R,3S)-3-hydroxypiperidin-2-yl)propan-2-one]	< 100	≤ 5	–
O=C(C[C@H]1NCCC[C@@H]1O)Cn1cnc2ccc(C(F)(F)F)cc21 [Example 7, 1-((2R,3S)-3-hydroxypiperidin-2-yl)-3-(6-(trifluoromethyl)-1H-benzo[d]imidazol-1-yl)propan-2-one]	< 100	5 to 30	–
O=C(C[C@H]1NCCC[C@@H]1O)Cn1cnc2ccc(Br)cc21 [Example 5, 1-(6-bromo-1H-benzo[d]imidazol-1-yl)-3-((2R,3S)-3-hydroxypiperidin-2-yl)propan-2-one]	< 100	5 to 30	–

Further lines, with some results ahead:

IC50 [1, 2] [nM]	IC50 (NCI-H460 cells) [µM]	Structure (SMILES)	IC50 [1] [nM]
> 500	≥ 30	O[C@H]1CCCN[C@@H]1CC(F)(F)Cn1cnc2cc(Cl)c(Cl)cc21 [Example 82, (2R,3S)-2-(3-(5,6-dichloro-1H-benzo[d]imidazol-1-yl)-2,2-difluoropropyl)piperidin-3-ol]	–
100 to 500	5 to 30	OC(C[C@H]1NCCC[C@@H]1O)Cn1cnc2cc(Cl)c(Cl)cc21 (stereo partly drawn) [Example 70, (2R,3S)-2-(3-(5,6-dichloro-1H-benzo[d]imidazol-1-yl)-2-hydroxypropyl)piperidin-3-ol]	–
< 100	≤ 5	O=C(C[C@H]1NCCC[C@@H]1O)Cn1c(CO)nc2cc(Cl)c(Cl)cc21 [Example 87, 1-(5,6-dichloro-2-(hydroxymethyl)-1H-benzo[d]imidazol-1-yl)-3-((2R,3S)-3-hydroxypiperidin-2-yl)propan-2-one]	–
< 100	5 to 30	O=C(C[C@H]1NCCC[C@@H]1O)Cn1cnc2ccc(Cl)cc21 [Example 3, 1-(6-chloro-1H-benzo[d]imidazol-1-yl)-3-((2R,3S)-3-hydroxypiperidin-2-yl)propan-2-one]	–
< 100	5 to 30	OC(C[C@H]1NCCC[C@@H]1O)Cn1cnc2c(Cl)c(Br)ccc21 (stereo partly drawn) [Example 71, (2R,3S)-2-(3-(5-bromo-4-chloro-1H-benzo[d]imidazol-1-yl)-2-hydroxypropyl)piperidin-3-ol]	–
> 500	≥ 30	O=C(C[C@H]1NCCC[C@@H]1O)Cn1c(C(F)(F)F)nc2cc(Cl)c(Cl)cc21 [Example 50, 1-(5,6-dichloro-2-(trifluoromethyl)-1H-benzo[d]imidazol-1-yl)-3-((2R,3S)-3-hydroxypiperidin-2-yl)propan-2-one]	–
< 100	≥ 30	Cc1c(Br)ccc2c1ncn2CC(O)C[C@H]1NCCC[C@@H]1O (stereo partly drawn) [Example 89, (2R,3S)-2-(3-(5-bromo-4-methyl-1H-benzo[d]imidazol-1-yl)-2-hydroxypropyl)piperidin-3-ol]	–
> 500	≥ 30	COC(C[C@H]1NCCC[C@@H]1O)Cn1cnc2cc(Cl)c(Cl)cc21 (stereo partly drawn) [Example 83, (2R,3S)-2-(3-(5,6-dichloro-1H-benzo[d]imidazol-1-yl)-2-methoxypropyl)piperidin-3-ol]	–
< 100	≤ 5	O=C(C[C@H]1NCCC[C@@H]1O)Cn1cnc2cc(Cl)c(Cl)cc21 [Example 25, 1-(5,6-dichloro-1H-benzo[d]imidazol-1-yl)-3-((2R,3S)-3-hydroxypiperidin-2-yl)propan-2-one]	–
< 100	5 to 30	O=C(C[C@H]1NCCC[C@@H]1O)Cn1cnc2cc(Br)c(Br)cc21 [Example 27, 1-(5,6-dibromo-1H-benzo[d]imidazol-1-yl)-3-((2R,3S)-3-hydroxypiperidin-2-yl)propan-2-one]	–
< 100	≤ 5	O=C(C[C@H]1NCCC[C@@H]1O)Cn1cnc2c(Cl)c(Cl)ccc21 [Example 12, 1-(4,5-dichloro-1H-benzo[d]imidazol-1-yl)-3-((2R,3S)-3-hydroxypiperidin-2-yl)propan-2-one]	–

Source: US10081634B2, “Heterocyclic compound” (Daewoong Pharmaceutical Co., Ltd., priority 2014, dated 2018)
